Values quoted from earlier work, collected in patent US11589577B2, “Nanotechnology system for agricultural applications” (priority 2012, dated 2023).

Details: binds soil ions; stated as known issue

abamectin
soil mobility (general statement): poor soil mobility
